Drawing on patent US6407115B1, “Hexa-cyclic compound” (Daiichi Pharmaceutical Co., Ltd., priority 1991, dated 2002), this text covers melting point for seven compounds.

Structures are written as SMILES.

For the compound `CC[C@@]1(O)C(=O)OCc2c1cc1n(c2=O)Cc2c-1nc1ccc(Cl)c3c1c2C(NC(C)=O)CN3` (stereo partly shown), the melting point – broadly, the temperature of the solid-liquid transition – fell in the range of 250 to 270 °C. Next, `CC[C@@]1(O)C(=O)OCc2c1cc1n(c2=O)Cc2c-1nc1ccc(C)c3c1c2CCC3N1C(=O)c2ccccc2C1=O` (stereo partly shown): 285 to 290 °C (dec.). As for `CC[C@@]1(O)C(=O)OCc2c1cc1n(c2=O)Cc2c-1nc1cccc3c1c2C(NC(C)=O)CCC3` (stereo partly shown), the melting point was 203 to 206 °C (dec.).

Turning to `CC[C@@]1(O)C(=O)OCc2c1cc1n(c2=O)Cc2c-1nc1cccc3c1c2CC(S(=O)(=O)O)C3` (stereo partly shown), the melting point is 190 to 200 °C (dec.). Regarding `CC[C@@]1(O)C(=O)OCc2c1cc1n(c2=O)Cc2c-1nc1ccc(C)c3c1c2CCN3CCNC(C)=O`, the melting point was 155 to 165 °C (dec.). Next, `CC[C@@]1(O)C(=O)OCc2c1cc1n(c2=O)Cc2c-1nc1ccc(C)c3c1c2C(NC(C)=O)CN3` (stereo partly shown): 225 to 235 °C; `CC[C@@]1(O)C(=O)OCc2c1cc1n(c2=O)Cc2c-1nc1ccc(C)c3c1c2CCN3CCN.Cl`: 210 to 230 °C (dec.).
